Assay results from patent US5441973A, “N-acyl-4-phenyl-pyrrolidin-2-ones and method for preparing” (Arzneimittelwerk Dresden G.m.b.H., priority 1990, dated 1995).

test: not given; details: from prior patents / known; cited from earlier work

SMILES | CNS effect reported in prior publications
O=C1CC(c2ccc(Cl)cc2)CN1 (stereo not drawn) [4-(4-chlorophenyl)-pyrrolidin-2-one] | anticonvulsive effect
CCCC(CCC)C(=O)N1CCCC1=O [N-dipropylacetylpyrrolidin-2-one] | nootropic effects
NC(=O)N1c2ccccc2C=Cc2ccccc21 [carbamazepine] | nootropic effects
CCCC(CCC)C(=O)O [dipropylacetic acid] | nootropic effects

test: in vivo; details: mouse, ip

SMILES | LD50 [mg/kg]
CCCC(CCC)C(=O)O [Ca-Valproate] | 455
NC(=O)CN1CCCC1=O [Piracetam] | > 2000
CCCC(CCC)C(=O)N1CC(c2ccccc2)CC1=O (stereo not drawn) [compound 1] | 1630
CCCC(CCC)C(=O)N1CC(c2ccc(Cl)cc2)CC1=O (stereo not drawn) [compound 2] | > 2000
COc1ccc(C(=O)N2CC(c3ccccc3)CC2=O)cc1 (stereo not drawn) [compound 3] | > 2000
COc1ccc(C(=O)N2CC(c3ccc(Cl)cc3)CC2=O)cc1 (stereo not drawn) [compound 4] | > 2000
O=C(COc1ccc(Cl)cc1)N1CC(c2ccc(Cl)cc2)CC1=O (stereo not drawn) [compound 5] | > 2000
CCOC(=O)C1C(=O)N(C(=O)c2ccc(OC)cc2)CC1c1ccccc1 (stereo not drawn) [compound 6] | > 2000
